Assay results: patent US20230391739A1, “ARYL DERIVATIVES FOR TREATING TRPM3 MEDIATED DISORDERS” (Katholieke Universiteit Leuven, priority 2020, published 2023)

biological target: T1, mouse TRPM3α2 (mTRPM3) ion channel (Mus musculus, UniProt J9SQF3); experiment: TRPM3 ion channel driven Ca2+ uptake, Fluo-4 AM assay, PS-stimulated (mTRPM3); type: cell-based; conditions: TRPM3 overexpressing flip-in HEK293 cells stimulated with Pregnenolone sulfate (PS) 50 μM, activity ranges A, B, C
T1 construct: expressed in transfected cells; host or cells: flip-in HEK293
T1 sequence (J9SQF3 1-1709 isoform J9SQF3-12): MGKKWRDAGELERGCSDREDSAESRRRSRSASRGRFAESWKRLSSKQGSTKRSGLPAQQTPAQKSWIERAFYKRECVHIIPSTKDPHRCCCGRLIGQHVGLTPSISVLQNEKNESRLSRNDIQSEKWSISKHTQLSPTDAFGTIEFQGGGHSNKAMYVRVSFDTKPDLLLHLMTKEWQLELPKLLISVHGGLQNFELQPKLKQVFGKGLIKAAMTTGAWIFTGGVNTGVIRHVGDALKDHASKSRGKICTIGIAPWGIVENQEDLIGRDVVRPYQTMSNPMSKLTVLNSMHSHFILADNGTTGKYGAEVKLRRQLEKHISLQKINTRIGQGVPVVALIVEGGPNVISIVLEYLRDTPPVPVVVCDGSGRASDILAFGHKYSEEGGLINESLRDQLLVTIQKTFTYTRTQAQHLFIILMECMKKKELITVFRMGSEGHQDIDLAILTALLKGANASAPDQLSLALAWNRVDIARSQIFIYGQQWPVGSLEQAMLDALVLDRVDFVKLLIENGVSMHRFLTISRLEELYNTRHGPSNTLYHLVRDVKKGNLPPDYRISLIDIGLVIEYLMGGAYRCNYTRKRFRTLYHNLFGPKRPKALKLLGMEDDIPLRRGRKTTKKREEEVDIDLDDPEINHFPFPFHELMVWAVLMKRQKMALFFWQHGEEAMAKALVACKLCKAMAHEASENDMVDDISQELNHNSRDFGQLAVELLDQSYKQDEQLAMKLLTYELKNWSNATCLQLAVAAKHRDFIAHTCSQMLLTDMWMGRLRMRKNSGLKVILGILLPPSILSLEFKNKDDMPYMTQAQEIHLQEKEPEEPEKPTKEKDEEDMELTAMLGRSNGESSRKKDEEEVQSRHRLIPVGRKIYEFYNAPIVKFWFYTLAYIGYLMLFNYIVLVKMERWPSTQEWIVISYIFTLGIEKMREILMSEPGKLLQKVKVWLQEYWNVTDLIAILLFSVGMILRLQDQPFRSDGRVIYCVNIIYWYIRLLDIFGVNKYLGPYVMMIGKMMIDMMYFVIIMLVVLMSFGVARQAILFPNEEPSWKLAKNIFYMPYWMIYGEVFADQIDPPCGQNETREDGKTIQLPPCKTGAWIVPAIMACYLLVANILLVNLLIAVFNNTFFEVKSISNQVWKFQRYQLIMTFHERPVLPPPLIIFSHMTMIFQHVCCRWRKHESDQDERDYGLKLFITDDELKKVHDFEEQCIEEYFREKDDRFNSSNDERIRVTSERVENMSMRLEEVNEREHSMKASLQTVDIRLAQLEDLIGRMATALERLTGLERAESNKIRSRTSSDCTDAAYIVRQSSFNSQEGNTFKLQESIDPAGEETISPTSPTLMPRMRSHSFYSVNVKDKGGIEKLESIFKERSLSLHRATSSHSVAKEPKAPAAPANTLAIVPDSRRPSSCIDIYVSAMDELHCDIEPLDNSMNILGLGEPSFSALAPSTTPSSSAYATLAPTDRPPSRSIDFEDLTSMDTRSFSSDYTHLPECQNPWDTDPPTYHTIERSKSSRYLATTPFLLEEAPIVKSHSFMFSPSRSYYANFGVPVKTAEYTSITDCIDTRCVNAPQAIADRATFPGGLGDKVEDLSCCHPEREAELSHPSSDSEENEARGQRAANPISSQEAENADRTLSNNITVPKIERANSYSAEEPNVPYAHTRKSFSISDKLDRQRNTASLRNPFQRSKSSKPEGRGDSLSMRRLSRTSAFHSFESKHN
In short: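 Flp-In HEK293 cells overexpressing mTRPM3α2 were added, in Ca²⁺-free Krebs, to wells already holding compound and 50 μM pregnenolone sulfate in Ca²⁺-containing Krebs. Fluo-4 AM fluorescence (ex 485/em 535 nm) was read immediately. Percent inhibition was computed from RFU relative to PS/vehicle wells and a positive-control inhibitor.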

`Cc1oc2ccc(OC(C)c3ccccc3)cc2c1C(=O)NC1(C(N)=O)CCC1` (single isomer, unassigned) [Cpd 343-En 1, N-(1-carbamoylcyclobutyl)-2-methyl-5-(1-phenylethoxy)benzofuran-3-carboxamide] and `Cc1oc2ccc(OC(CO)c3ccccc3F)cc2c1C(=O)NC1(C(N)=O)CCC1` (single isomer, unassigned) [Cpd 345-En 1, N-(1-carbamoylcyclobutyl)-5-(1-(2-fluorophenyl)-2-hydroxyethoxy)-2-methylbenzofuran-3-carboxamide] cannot be ordered by IC50: < 1000 nM for the first, < 1000 nM for the second.

`Cc1oc2ccc(OC(C)c3ccccc3)cc2c1C(=O)NC1(C(N)=O)CCC1` (single isomer, unassigned) [Cpd 343-En 2, N-(1-carbamoylcyclobutyl)-2-methyl-5-(1-phenylethoxy)benzofuran-3-carboxamide] and `Cc1oc2ccc(OC(CO)c3ccccc3F)cc2c1C(=O)NC1(C(N)=O)CCC1` (single isomer, unassigned) [Cpd 345-En 2, N-(1-carbamoylcyclobutyl)-5-(1-(2-fluorophenyl)-2-hydroxyethoxy)-2-methylbenzofuran-3-carboxamide] cannot be ordered by IC50: < 1000 nM for the first, < 1000 nM for the second.

First: COCC(Oc1ccc2oc(C)c(C(=O)N[C@@H](CO)C(N)=O)c2c1)c1ccccc1 (single isomer, unassigned) [Cpd 346-En 1]
Second: Cc1oc2ccc(OC(CN(C)C)c3ccccc3)cc2c1C(=O)N[C@@H](CO)C(N)=O (single isomer, unassigned) [Cpd 347-En 1]
The IC50 of the first is lower: < 1000 nM for the first, 1000 to 20000 nM for the second.

`COCC(Oc1ccc2oc(C)c(C(=O)N[C@@H](CO)C(N)=O)c2c1)c1ccccc1` (single isomer, unassigned) [Cpd 346-En 2] and `Cc1oc2ccc(OC(CN(C)C)c3ccccc3)cc2c1C(=O)N[C@@H](CO)C(N)=O` (single isomer, unassigned) [Cpd 347-En 2] cannot be ordered by IC50: < 1000 nM for the first, < 1000 nM for the second.

First: O=C(O)c1coc2ccc(OCc3ccccc3)cc12 [Cpd 001, 5-(benzyloxy)benzofuran-3-carboxylic acid]
Second: CCOC(=O)c1coc2ccc(OCc3ccccc3)cc12 [Cpd 029, ethyl 5-(benzyloxy)benzofuran-3-carboxylate]
The IC50 of the first is lower: 1000 to 20000 nM for the first, > 20000 nM for the second.

`Cc1oc2ccc(OCc3ccccc3)cc2c1C(=O)O` [Cpd 002, 5-(benzyloxy)-2-methylbenzofuran-3-carboxylic acid] and `Cc1oc2ccc(OCc3ccccc3)cc2c1C(N)=O` [Cpd 035, 5-(benzyloxy)-2-methylbenzofuran-3-carboxamide] cannot be ordered by IC50: < 1000 nM for the first, < 1000 nM for the second.

`Cc1ccccc1COc1ccc2oc(C)c(C(=O)O)c2c1` [Cpd 003, 2-methyl-5-((2-methylbenzyl)oxy)benzofuran-3-carboxylic acid] and `Cc1oc2ccc(OCc3ccccc3F)cc2c1C(=O)O` [Cpd 008, 5-((2-fluorobenzyl)oxy)-2-methylbenzofuran-3-carboxylic acid] cannot be ordered by IC50: < 1000 nM for the first, < 1000 nM for the second.

`Cc1oc2ccc(OC(C)c3ccccc3)cc2c1C(=O)O` (stereo not shown) [Cpd 004, 2-methyl-5-(1-phenylethoxy)benzofuran-3-carboxylic acid] and `Cc1oc2ccc(OCc3ccccc3Cl)cc2c1C(=O)O` [Cpd 018, 5-((2-chlorobenzyl)oxy)-2-methylbenzofuran-3-carboxylic acid] fall in the same range of IC50: 1000 to 20000 nM for the first, 1000 to 20000 nM for the second.

First: Cc1cccc(COc2ccc3oc(C)c(C(=O)O)c3c2)c1 [Cpd 005, 2-methyl-5-((3-methylbenzyl)oxy)benzofuran-3-carboxylic acid]
Second: Cc1oc2ccc(OCc3cccc(Cl)c3)cc2c1C(=O)O [Cpd 017, 5-((3-chlorobenzyl)oxy)-2-methylbenzofuran-3-carboxylic acid]
The IC50 of the first is lower: < 1000 nM for the first, 1000 to 20000 nM for the second.

`Cc1ccc(COc2ccc3oc(C)c(C(=O)O)c3c2)cc1` [Cpd 006, 2-methyl-5-((4-methylbenzyl)oxy)benzofuran-3-carboxylic acid] and `Cc1oc2ccc(OCc3ccc(F)cc3)cc2c1C(=O)O` [Cpd 009, 5-((4-fluorobenzyl)oxy)-2-methylbenzofuran-3-carboxylic acid] fall in the same range of IC50: 1000 to 20000 nM for the first, 1000 to 20000 nM for the second.

`Cc1oc2ccc(OCc3ccccc3C#N)cc2c1C(=O)O` [Cpd 010, 5-((2-cyanobenzyl)oxy)-2-methylbenzofuran-3-carboxylic acid] and `COc1ccccc1COc1ccc2oc(C)c(C(=O)O)c2c1` [Cpd 013, 5-((2-methoxybenzyl)oxy)-2-methylbenzofuran-3-carboxylic acid] fall in the same range of IC50: 1000 to 20000 nM for the first, 1000 to 20000 nM for the second.

First: Cc1oc2ccc(OC3CCc4ccccc43)cc2c1C(=O)O (stereo not shown) [Cpd 011, 5-((2,3-dihydro-1H-inden-1-yl)oxy)-2-methylbenzofuran-3-carboxylic acid]
Second: Cc1oc2ccc(OCc3ccccc3C(F)(F)F)cc2c1C(=O)O [Cpd 024, 2-methyl-5-((2-(trifluoromethyl)benzyl)oxy)benzofuran-3-carboxylic acid]
The IC50 of the first is higher: 1000 to 20000 nM for the first, < 1000 nM for the second. The second is the more potent here.

Compared with `COc1cccc(COc2ccc3oc(C)c(C(=O)O)c3c2)c1` [Cpd 012, 5-((3-methoxybenzyl)oxy)-2-methylbenzofuran-3-carboxylic acid], `COc1ccc(COc2ccc3oc(C)c(C(=O)O)c3c2)cc1` [Cpd 014, 5-((4-methoxybenzyl)oxy)-2-methylbenzofuran-3-carboxylic acid] is higher in IC50: < 1000 nM for the first, 1000 to 20000 nM for the second.

`CCc1oc2ccc(OCc3cccc(F)c3)cc2c1C(=O)O` [Cpd 015, 2-ethyl-5-((3-fluorobenzyl)oxy)benzofuran-3-carboxylic acid] and `COCc1oc2ccc(OCc3cccc(F)c3)cc2c1C(=O)O` [Cpd 020, 5-((3-fluorobenzyl)oxy)-2-(methoxymethyl)benzofuran-3-carboxylic acid] fall in the same range of IC50: 1000 to 20000 nM for the first, 1000 to 20000 nM for the second.

Compared with `Cc1oc2ccc(OCc3ccc(Cl)cc3)cc2c1C(=O)O` [Cpd 016, 5-((4-chlorobenzyl)oxy)-2-methylbenzofuran-3-carboxylic acid], `Cc1oc2ccc(OCc3ccc(C(F)(F)F)cc3)cc2c1C(=O)O` [Cpd 026, 2-methyl-5-((4-(trifluoromethyl)benzyl)oxy)benzofuran-3-carboxylic acid] is higher in IC50: 1000 to 20000 nM for the first, > 20000 nM for the second. The first is the more potent here.

`Cc1oc2ccc(OCc3c(F)cccc3Cl)cc2c1C(=O)O` [Cpd 021, 5-((2-chloro-6-fluorobenzyl)oxy)-2-methylbenzofuran-3-carboxylic acid] and `Cc1oc2ccc(OCc3ccc(F)cc3Cl)cc2c1C(=O)O` [Cpd 022, 5-((2-chloro-4-fluorobenzyl)oxy)-2-methylbenzofuran-3-carboxylic acid] fall in the same range of IC50: 1000 to 20000 nM for the first, 1000 to 20000 nM for the second.

Going from `O=C(O)c1c(C2CCCC2)oc2ccc(OCc3ccccc3)cc12` [Cpd 023, 5-(benzyloxy)-2-cyclopentylbenzofuran-3-carboxylic acid] to `Cc1oc2ccc(OCc3ccccc3)cc2c1C(=O)NO` [Cpd 036, 5-(benzyloxy)-N-hydroxy-2-methylbenzofuran-3-carboxamide], the IC50 falls from > 20000 nM to < 1000 nM. The second is the more potent here.

First: Cc1oc2ccc(OCc3cccc(C(F)(F)F)c3)cc2c1C(=O)O [Cpd 025, 2-methyl-5-((3-(trifluoromethyl)benzyl)oxy)benzofuran-3-carboxylic acid]
Second: Cc1oc2ccc(OCc3cccc(OC(F)(F)F)c3)cc2c1C(=O)O [Cpd 028, 2-methyl-5-((3-(trifluoromethoxy)benzyl)oxy)benzofuran-3-carboxylic acid]
The IC50 of the first is lower: 1000 to 20000 nM for the first, > 20000 nM for the second.

For `Cc1oc2ccc(OCc3cccc(F)c3)cc2c1C(N)=O` [Cpd 037, 5-((3-fluorobenzyl)oxy)-2-methylbenzofuran-3-carboxamide], the IC50 was > 20000 nM.
